Measured values taken from patent US20210330611A1, “THERAPY FOR NEUROLOGICAL DISEASES/DISORDERS” (priority 2020, published 2021).
Structures can show the parent of a compound that is named as a salt. Where two headings read alike, the source gives them in different places.

How the values were obtained:
[1] = system: fibrin-induced microglia activation; experiment: Image-based assay of fibrin-induced microglia activation (HTS and dose response); assay type: cell-based, rat; conditions: for inhibition at 10 µM: Rattus norvegicus, Microglia, read-out: Fibrin % inhibition
[2] = system: LPS-induced microglia activation; experiment: Image-based assay of LPS-induced microglia activation (HTS and dose response); assay type: cell-based, rat; conditions: for inhibition at 10 µM: Rattus norvegicus, Microglia, read-out: LPS % inhibition
[3] = system: fibrin- and LPS-induced microglia activation; experiment: cells; assay type: cell-based, rat
[4] = system: primary rat microglia; experiment: Cell toxicity (dead cells, size <150 μm2) in LPS assay; conditions: for IC50: read-out: Cell Toxicity IC50 (uM) [LPS assay]
[5] = system: primary rat microglia; experiment: Cell toxicity (dead cells, size <150 μm2) in coated fibrin (cFib) assay; conditions: for IC50: read-out: Cell Toxicity IC50 (uM) [cFib assay];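 as to Fibrin % cell toxicity: share of dead cells sized under 150 µm2 at 10 µM in fibrin-stimulated microglia HTS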
[6] = primary HTS, 10 μM, fibrin-stimulated primary microglia
[7] = primary HTS, 10 μM, LPS-stimulated primary microglia
[8] = primary HTS, 10 μM, LPS assay, dead cells size <150 μm2
[9] = primary HTS, 10 μM, fibrin assay, dead cells size <150 μm2
[10] = primary microglia HTS, fibrin stimulation, increased cell size (>800 μm^2) as marker of activation
[11] = 48 h, primary microglia HTS, LPS stimulation, increased cell size (>800 μm^2) as marker of activation
[12] = quadrant by fibrin and LPS inhibition in HTS of 1907 compounds
[13] = primary microglia HTS, LPS stimulation, decreased size (<150 μm^2) as marker of toxicity
[14] = primary microglia HTS, fibrin stimulation, decreased size (<150 μm^2) as marker of toxicity
[15] = primary microglia HTS, 10 μM, fibrin-stimulated, cell size >800 μm^2 as marker of activation
[16] = primary microglia HTS, 10 μM, LPS-stimulated, cell size >800 μm^2 as marker of activation
[17] = HTS of 1907 compounds, quadrant by fibrin and LPS inhibition
[18] = primary microglia HTS, 10 μM, LPS assay, cell size <150 μm^2 as marker of toxicity
[19] = primary microglia HTS, 10 μM, fibrin assay, cell size <150 μm^2 as marker of toxicity
[20] = primary microglia HTS, fibrin stimulation, activation = cell size >800 μm2
[21] = 48 h, primary microglia HTS, LPS stimulation, activation = cell size >800 μm2
[22] = primary microglia HTS, LPS stimulation, toxicity = cell size <150 μm2
[23] = primary microglia HTS, fibrin stimulation, toxicity = cell size <150 μm2
[24] = primary microglia HTS, LPS stimulation, activation = cell size >800 μm2
[25] = primary microglia HTS, LPS stimulation, increased cell size (>800 μm^2) as marker of activation

Cn1nnnc1SCC1=C(C(=O)O)N2C(=O)[C@@H](NC(=O)[C@H](O)c3ccccc3)[C@H]2SC1 [Cefamandole Sodium]
inhibition at 10 µM [1, 6]: -12% | inhibition at 10 µM [2, 7]: 16% | Quadrant (FIG. 5b) ([3]; primary HTS, 10 μM): Q4 | LPS % cell toxicity [4, 8]: 0% | Fibrin % cell toxicity [5, 9]: 1%

Cc1ccc(Cl)c(Nc2ccccc2C(=O)O)c1Cl [Meclofenamic Acid]
inhibition at 10 µM [1, 10]: 12% | inhibition at 10 µM [2, 11]: 14% | Quadrant (FIG. 5b) [3, 12]: Q4 | LPS % cell toxicity [4, 13]: 0% | Fibrin % cell toxicity [5, 14]: 1%

O=C(O)C1CSCN1 (centres unmarked) [Timonacic]
inhibition at 10 µM [1, 15]: -38% | inhibition at 10 µM [2, 16]: 19% | Quadrant (FIG. 5b) [3, 17]: Q4 | LPS % cell toxicity [4, 18]: 0% | Fibrin % cell toxicity [5, 19]: 0%

CC(C)OC(=O)CCC/C=C\C[C@@H]1[C@@H](/C=C/[C@@H](O)COc2cccc(C(F)(F)F)c2)[C@H](O)C[C@@H]1O [Travoprost]
inhibition at 10 µM [1, 15]: 4% | inhibition at 10 µM [2, 16]: 15% | Quadrant (FIG. 5b) [3, 17]: Q4 | LPS % cell toxicity [4, 18]: 0% | Fibrin % cell toxicity [5, 19]: 1%

C=CCC1(C(C)CCC)C(=O)N=C(S)NC1=O (centres unmarked) [Thiamylal]
inhibition at 10 µM [1, 15]: -1% | inhibition at 10 µM [2, 16]: 26% | Quadrant (FIG. 5b) [3, 17]: Q4 | LPS % cell toxicity [4, 18]: 0% | Fibrin % cell toxicity [5, 19]: 0%

COc1cc(OC)c(C(=O)CCCN2CCCC2)c(OC)c1 [Buflomedil, Buflomedil Hydrochloride]
Fibrin % inhibition [1, 6]: −37% | LPS % inhibition [2, 7]: 13% | Quadrant (FIG. 5b) ([3]; primary HTS, 10 μM): Q4 | LPS % cell toxicity [4, 8]: 1% | Fibrin % cell toxicity [5, 9]: 1%

C[N+]1(C)CCCC(OC(=O)C(O)(c2ccccc2)c2ccccc2)C1 (centres unmarked) [Mepenzolate]
inhibition at 10 µM [1, 10]: 45% | inhibition at 10 µM [2, 11]: 34% | Quadrant (FIG. 5b) [3, 12]: Q4 | LPS % cell toxicity [4, 13]: 1% | Fibrin % cell toxicity [5, 14]: 1%

CC1=C(/C=C/C(C)=C/C=C/C(C)=C/C(=O)Nc2ccc(O)cc2)C(C)(C)CCC1 [Fenretinide]
inhibition at 10 µM [1, 20]: -42% | inhibition at 10 µM [2, 21]: 35% | Quadrant (FIG. 5b) [3, 12]: Q4 | LPS % cell toxicity [4, 22]: 0% | Fibrin % cell toxicity [5, 23]: 0%

CCCc1nc(C(C)(C)O)c(C(=O)OCc2oc(=O)oc2C)n1Cc1ccc(-c2ccccc2-c2nnn[nH]2)cc1 [Olmesartan Medoxomil]
inhibition at 10 µM [1, 10]: -5% | inhibition at 10 µM [2, 11]: 12% | Quadrant (FIG. 5b) [3, 12]: Q4 | LPS % cell toxicity [4, 13]: 0% | Fibrin % cell toxicity [5, 14]: 1%

Nc1c2ccccc2nc2ccccc12 [Aminacrine]
inhibition at 10 µM [1, 10]: 117% | inhibition at 10 µM [2, 11]: 118% | Quadrant (FIG. 5b) [3, 12]: Q2 | LPS % cell toxicity [4, 13]: 67% | Fibrin % cell toxicity [5, 14]: 72%

O=C1O[C@H](CO)[C@@H](O)[C@H](O)[C@H]1O [Gluconolactone]
inhibition at 10 µM [1, 20]: -1% | inhibition at 10 µM [2, 21]: 17% | Quadrant (FIG. 5b) [3, 12]: Q4 | LPS % cell toxicity [4, 22]: 0% | Fibrin % cell toxicity [5, 23]: 0%

CC[C@H]1CN2CC[C@H]1C[C@@H]2[C@@H](O)c1ccnc2ccc(OC)cc12 [Hydroquinidine]
inhibition at 10 µM [1, 20]: -8% | inhibition at 10 µM [2, 21]: 18% | Quadrant (FIG. 5b) [3, 12]: Q4 | LPS % cell toxicity [4, 22]: 0% | Fibrin % cell toxicity [5, 23]: 1%

CCC[C@@H]1C[C@@H](C(=O)N[C@@H]([C@H]2O[C@H](SC)[C@H](O)[C@@H](O)[C@H]2O)[C@@H](C)O)N(C)C1 [Lincomycin]
Fibrin % inhibition [1, 20]: −29% | LPS % inhibition [2, 24]: −5% | Quadrant (FIG. 5b) [3, 12]: Q4 | LPS % cell toxicity [4, 22]: 0% | Fibrin % cell toxicity [5, 23]: 1%

CNCC(O)c1ccc(O)cc1 (centres unmarked) [Synephrine]
inhibition at 10 µM [1, 15]: -16% | inhibition at 10 µM [2, 16]: 12% | Quadrant (FIG. 5b) [3, 17]: Q4 | LPS % cell toxicity [4, 18]: 0% | Fibrin % cell toxicity [5, 19]: 0%

CC(O)CN1CCN(CC(=O)[O-])CCN(CC(=O)[O-])CCN(CC(=O)[O-])CC1.[Gd+3] (centres unmarked) [Gadoteridol]
Fibrin % inhibition [1, 20]: −18% | LPS % inhibition [2, 24]: 15% | Quadrant (FIG. 5b) [3, 12]: Q4 | LPS % cell toxicity [4, 22]: 0% | Fibrin % cell toxicity [5, 23]: 1%

O=C(O)C1=C(CSc2nnnn2CS(=O)(=O)O)CS[C@@H]2[C@H](NC(=O)[C@H](O)c3ccccc3)C(=O)N12 [Cefonicid Sodium]
inhibition at 10 µM [1, 6]: -11% | inhibition at 10 µM [2, 7]: 15% | Quadrant (FIG. 5b) ([3]; primary HTS, 10 μM): Q4 | LPS % cell toxicity [4, 8]: 0% | Fibrin % cell toxicity [5, 9]: 0%

CO/N=C1\C[C@]2(C[C@@H]3C[C@@H](C/C=C(\C)C[C@@H](C)/C=C/C=C4\CO[C@@H]5[C@H](O)C(C)=C[C@@H](C(=O)O3)[C@]45O)O2)O[C@H](/C(C)=C/C(C)C)[C@H]1C [Moxidectin]
inhibition at 10 µM [1, 10]: 1% | inhibition at 10 µM [2, 11]: 14% | Quadrant (FIG. 5b) [3, 12]: Q4 | LPS % cell toxicity [4, 13]: 1% | Fibrin % cell toxicity [5, 14]: 0%

FC(F)(F)COCC(F)(F)F [Flurothyl]
Fibrin % inhibition [1, 20]: 0% | LPS % inhibition [2, 24]: 28% | Quadrant (FIG. 5b) [3, 12]: Q4 | LPS % cell toxicity [4, 22]: 0% | Fibrin % cell toxicity [5, 23]: 1%

Nonoxynol-9
Fibrin % inhibition [1, 10]: −7% | LPS % inhibition [2, 25]: 23% | Quadrant (FIG. 5b) [3, 12]: Q4 | LPS % cell toxicity [4, 13]: 0% | Fibrin % cell toxicity [5, 14]: 0%

C[C@H](CCC(=O)O)[C@H]1CC[C@H]2[C@@H]3[C@@H](O)C[C@@H]4C[C@H](O)CC[C@]4(C)[C@H]3CC[C@]12C [Ursodeoxycholic Acid]
Fibrin % inhibition [1, 15]: −18% | LPS % inhibition [2, 16]: 1% | Quadrant (FIG. 5b) [3, 17]: Q4 | LPS % cell toxicity [4, 18]: 0% | Fibrin % cell toxicity [5, 19]: 1%

COC(=O)[C@@H]1CC2=CC(=O)CC[C@]2(C)[C@@]23O[C@@H]2C[C@@]2(C)[C@@H](CC[C@@]24CCC(=O)O4)[C@H]13 [Eplerenore, reference compound]
Fibrin Selectivity [1]: 8 | Fibrin Selectivity (LOG10) [1]: 0.88 | IC50 ([1]; Table 1, dose response 0.001-20 μM, triplicates, primary rat microglia, 48 h, read-out: Fibrin IC50): 3 µM | IC50 ([1]; Table 3, read-out: Fibrin IC50 (uM) (Suppl. Table 7)): 3 µM | IC50 ([1]; dose response, fibrin-induced microglia activation, read-out: Fibrin IC50): 3 µM | IC50 ([1]; fibrin-induced microglia activation, dose response, read-out: Fibrin IC50 (uM) (Suppl. Table 7)): 3 µM | Fibrin % inhibition [1, 10]: 63% | IC50 ([2]; LPS-induced microglia activation, dose response, read-out: LPS IC50 (uM) (Suppl. Table 7)): > 20 µM | IC50 ([2]; Table 1, dose response 0.001-20 μM, triplicates, primary rat microglia, 48 h, read-out: LPS IC50): > 20 µM | IC50 ([2]; Table 3, read-out: LPS IC50 (uM) (Suppl. Table 7)): > 20 µM | IC50 ([2]; dose response, LPS-induced microglia activation, read-out: LPS IC50): > 20 µM | LPS % inhibition [2, 25]: 69% | Hit ([3]; HTS hit classification): HIT (Hits were defined as molecules that exhibited greater than 50% inhibition of either fibrin or LPS activation) | Quadrant (FIG. 5b) [3, 17]: Q2 | Quadrant (FIG. 5b) ([3]; Table 1, screen at 10 μM): Q2 | Cherry-picked Hit (Suppl. Table 7) ([3]; Table 3): HIT (Hits were defined as molecules that exhibited greater than 50% inhibition of either fibrin or LPS activation) | Quadrant (FIG. 5b) ([3]; Table 3, screen at 10 μM): Q2 | Cherry-picked Hit (Suppl. Table 7) ([3]; hit classification in microglia HTS): HIT (Hits were defined as molecules that exhibited greater than 50% inhibition of either fibrin or LPS activation) | Quadrant (FIG. 5b) [3, 12]: Q2 | LPS % cell toxicity [4, 13]: 2% | IC50 ([4]; LPS assay): > 20 µM | IC50 ([4]; Table 3): > 20 µM | Fibrin % cell toxicity [5, 14]: 2% | IC50 ([5]; Table 3): > 20 µM | IC50 ([5]; cFib assay): > 20 µM

CC[N+](CC)(CC)CCOc1cccc(OCC[N+](CC)(CC)CC)c1OCC[N+](CC)(CC)CC [Gallamine Triethiodide]
inhibition at 10 µM [1, 20]: -11% | inhibition at 10 µM [2, 21]: 24% | Quadrant (FIG. 5b) [3, 12]: Q4 | LPS % cell toxicity [4, 22]: 1% | Fibrin % cell toxicity [5, 23]: 1%

Cl.NC1CCN(c2c(F)cc3c(=O)c(C(=O)O)cn(C4CC4)c3c2Cl)C1 (centres unmarked) [Clinafoxacin Hydrochloride]
Fibrin % inhibition [1, 6]: −22% | LPS % inhibition [2, 7]: 9% | Quadrant (FIG. 5b) ([3]; primary HTS, 10 μM): Q4 | LPS % cell toxicity [4, 8]: 0% | Fibrin % cell toxicity [5, 9]: 0%

Tyloxapol
Fibrin % inhibition [1, 15]: −1% | LPS % inhibition [2, 16]: 17% | Quadrant (FIG. 5b) [3, 17]: Q4 | LPS % cell toxicity [4, 18]: 0% | Fibrin % cell toxicity [5, 19]: 1%
